Results from US12065443B2, “Compounds and pharmaceutical compositions thereof for the treatment of diseases” (priority 2017, dated 2024).
pEC50, pIC50: −log10 of the molar value. Like-named read-outs stand apart in the source and are kept apart here.

What was measured:
[1] = target: T1, SIK3 (Homo sapiens, UniProt Q9Y2K2); experiment: biochemical
T1 construct: purchased SignalChem S12-11G-100
Method in brief: (§1)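 Radiometric assay: SIK1, SIK2 or SIK3 phosphorylates AMARA peptide using unlabelled plus [^33P]-γ-ATP, reaction started by ATP addition. Stopped with 150 mM phosphoric acid, filter-harvested and washed; incorporated ^33P counted by scintillation. Controls: 1% DMSO and 10 μM staurosporine final.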

[2] = target: T2, SIK1 (Homo sapiens, UniProt P57059); experiment: biochemical; conditions: 33P radioactive SIK kinase assay, AMARA peptide, 10 μM ATP; read-out: SIK1 IC50
T2 construct: purchased Carna Biosciences 02-131
Method in brief: as §1

[3] = target: T3, SIK2 (Homo sapiens, UniProt Q9H0K1); experiment: biochemical; conditions: 33P radioactive SIK kinase assay, AMARA peptide, 10 μM ATP
T3 construct: purchased ThermoFisher Scientific PV4792
Method in brief: as §1

[4] = tested on: LPS-induced TNFα secretion in monocyte-derived macrophages (MdM); experiment: MdM assay: LPS-triggered TNFα (ELISA); assay type: cell-based, human; conditions: LPS-triggered TNFα inhibition
Procedure: (§2) This assay evaluates illustrative compounds of the invention for their inhibition of LPS-induced TNFα and LPS triggered IL-10 secretion in monocyte-derived macrophages.
(§3) PBMCs are isolated from human blood samples (buffycoats). The buffy coat is aseptically transferred into a 50 mL Falcon tube, and diluted 1/2 in PBS. Falcon tubes are filled with 20 mL Lymphoprep™, on top of which 25 mL of the buffy coat is carefully added, tubes are centrifuged for 35 min at 400 g in temperature controlled centrifuge, without brake, at 25° C. PBMCs are aspirated from the white interface layer between sample and Lymphoprep™. PBMCs are washed five times in PBS.
(§4) PBMCs are centrifuged at 300×g for 10 min and resuspended at a density of 1.0E07 cells/80 μL Miltenyi buffer (PBS, pH 7.4, 1% FBS, 2 mM EDTA).
(§5) Starting from this point of the protocol all steps are performed on ice. 20 μL of CD14+ micro-beads are added per 1.0E07 cells, the tube is mixed and incubated for 15 min in the fridge at 4° C. Cell suspension volume is adjusted to total volume of 100 mL using Miltenyi buffer, mixed gently and subsequently centrifuged for 10 min at 300× g. Supernantant is discarded and cell pellet is resuspended in 12 mL of Miltenyi buffer.
(§6) Four LS columns are placed in the MACS Separator (magnet) from Miltenyi Biotec, and are prewet by rinsing with 3 mL of MACS buffer per column. Three mL of cell suspension is added onto the column (max 1*10^8 of labelled cells/column), and columns are subsequently washed 3 times with 3 mL of Miltenyi buffer.
(§7) The columns are removed from the magnets, and 5 mL of Miltenyi buffer are added to the column to flush out the CD14+ fraction by pushing the plunger into the column. The flushed fractions are collected in a fresh 50 mL Falcon and volume is adjusted to 30 mL using Miltenyi buffer, cells are centrifuged for 10 min at 300× g. The obtained cell pellet is resuspended in 10 mL RPMI w/o FBS, and cell density is determined using a hematologic analyser (Sysmex XS-500i).
(§8) On day 10, MdMs are triggered and compound is added.
(§9) A compound dilution plate is made in 100% DMSO by 3-fold dilution of 10 mM stock solution. An intermediate dilution plate (10× final concentration) is made by diluting the compound dilution plate 50-fold in RPMI medium.
(§10) Medium is carefully removed from cell plates using multichannel pipette, and replaced by 80 μL fresh medium. 10 μL of the 10× final concentration compound is added to the cells and incubated for 1 hour at 37° C. before addition of trigger. No trigger conditions/trigger conditions are spiked with equal final DMSO concentrations of 0.2% DMSO. 10 μL of 10×LPS (final conc. 200 ng/mL) solution are added to all wells except for the ‘no trigger wells’ where 10 μL medium is added. Supernatant is collected after 2 h (IL-10 determination) and after 20 h (TNFα determination) of LPS triggering.
The plate is then washed once with PBST (PBS+0.05% Tween20) and once with PBS followed by the addition of 100 μL of blocking buffer (1% Bovine Serum Albumin (BSA)-5% Sucrose) and plates are sealed and incubated for at least 4 h at RT. After washing the plate once with PBST and once with PBS, 40 μL of standard or sample are added (TNFα standard curve is prepared using a 1/2 serial dilution starting from 16000 pg/mL; dilutions are made in dilution buffer (PBS+1% BSA)). Plates are washed twice with PBST, and once with PBS, after which 35 μL of the detection antibody is added (final concentration 0.25 μg/mL diluted in dilution buffer) and plates are incubated for at least 2 h at RT. Plates are washed twice with PBST, and once with PBS, where after 35 μL of Strep-HRP conjugate (0.5 μg/mL final concentration diluted in dilution buffer) is added. Plates are incubated in the dark, at RT for at least 45 min but no longer than 1 hour. Plates are washed twice with PBST, and once with PBS.

[5] = tested on: LPS triggered IL-10 secretion in monocyte-derived macrophages (MdM); experiment: MdM assay: LPS-triggered IL-10 (ELISA); assay type: cell-based, human; conditions: maximal fold change vs LPS only, median across assays
Procedure: as §2, §3, §4, §5, §6, §7, §8, §9, §10
Plates are washed three times with PBST, where after 100 μL of Strep-HRP conjugate (0.5 μg/mL final concentration diluted in dilution buffer) is added. Plates are incubated in the dark, at 37° C. for 30 min. Plates are washed three times with PBST. […] 100 μL of substrate solution is added to each well and incubated until brilliant blue color develops. The reaction is stopped by adding 50 μL of 1 M H2SO4, after which absorbance is measured at 450 nm on the SpectraMax i3, Molecular Devices.
To quantify these inductions fold changes (FC) compared to ‘LPS only’ are calculated for each concentration tested and the maximal FC is calculated (IL-10 FCmax):
[formula] wherein ABS=Absorbance measured at 450 nm.
The median maximal FC for test compounds across two or more assays is reported (IL-10FCmax median).

T1 sequence (Q9Y2K2 whole entry): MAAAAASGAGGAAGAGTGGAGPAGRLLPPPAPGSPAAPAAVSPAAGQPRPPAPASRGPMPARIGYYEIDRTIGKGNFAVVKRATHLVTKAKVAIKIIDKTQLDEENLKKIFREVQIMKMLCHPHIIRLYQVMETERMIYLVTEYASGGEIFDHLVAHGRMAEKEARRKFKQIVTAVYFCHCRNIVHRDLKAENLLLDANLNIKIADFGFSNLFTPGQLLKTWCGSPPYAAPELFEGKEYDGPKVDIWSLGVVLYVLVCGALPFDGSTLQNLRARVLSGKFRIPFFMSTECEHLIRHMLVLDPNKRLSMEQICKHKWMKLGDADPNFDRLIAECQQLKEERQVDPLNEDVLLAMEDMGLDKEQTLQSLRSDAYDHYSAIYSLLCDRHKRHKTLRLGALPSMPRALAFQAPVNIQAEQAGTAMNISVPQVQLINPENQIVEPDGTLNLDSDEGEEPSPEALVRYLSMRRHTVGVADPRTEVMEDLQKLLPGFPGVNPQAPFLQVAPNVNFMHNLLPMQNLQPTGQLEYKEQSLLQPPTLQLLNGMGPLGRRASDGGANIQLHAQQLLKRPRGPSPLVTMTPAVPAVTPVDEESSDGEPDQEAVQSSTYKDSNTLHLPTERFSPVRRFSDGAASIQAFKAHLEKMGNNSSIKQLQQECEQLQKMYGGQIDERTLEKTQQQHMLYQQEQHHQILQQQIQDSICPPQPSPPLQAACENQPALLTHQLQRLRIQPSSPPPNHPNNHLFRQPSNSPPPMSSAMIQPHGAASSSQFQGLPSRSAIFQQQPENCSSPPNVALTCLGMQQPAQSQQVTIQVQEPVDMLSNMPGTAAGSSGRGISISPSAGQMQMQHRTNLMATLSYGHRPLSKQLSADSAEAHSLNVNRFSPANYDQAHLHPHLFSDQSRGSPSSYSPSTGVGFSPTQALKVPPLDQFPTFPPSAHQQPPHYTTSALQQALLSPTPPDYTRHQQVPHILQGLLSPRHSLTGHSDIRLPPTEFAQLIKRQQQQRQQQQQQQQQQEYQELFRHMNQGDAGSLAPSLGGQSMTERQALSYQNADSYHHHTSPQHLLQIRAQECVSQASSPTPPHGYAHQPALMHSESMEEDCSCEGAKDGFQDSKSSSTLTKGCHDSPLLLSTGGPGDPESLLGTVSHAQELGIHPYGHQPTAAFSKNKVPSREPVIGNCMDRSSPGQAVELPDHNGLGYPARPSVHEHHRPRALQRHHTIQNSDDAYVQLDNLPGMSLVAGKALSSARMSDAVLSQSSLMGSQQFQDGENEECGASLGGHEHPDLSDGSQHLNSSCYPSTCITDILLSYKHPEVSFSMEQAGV
T2 sequence (P57059 whole entry): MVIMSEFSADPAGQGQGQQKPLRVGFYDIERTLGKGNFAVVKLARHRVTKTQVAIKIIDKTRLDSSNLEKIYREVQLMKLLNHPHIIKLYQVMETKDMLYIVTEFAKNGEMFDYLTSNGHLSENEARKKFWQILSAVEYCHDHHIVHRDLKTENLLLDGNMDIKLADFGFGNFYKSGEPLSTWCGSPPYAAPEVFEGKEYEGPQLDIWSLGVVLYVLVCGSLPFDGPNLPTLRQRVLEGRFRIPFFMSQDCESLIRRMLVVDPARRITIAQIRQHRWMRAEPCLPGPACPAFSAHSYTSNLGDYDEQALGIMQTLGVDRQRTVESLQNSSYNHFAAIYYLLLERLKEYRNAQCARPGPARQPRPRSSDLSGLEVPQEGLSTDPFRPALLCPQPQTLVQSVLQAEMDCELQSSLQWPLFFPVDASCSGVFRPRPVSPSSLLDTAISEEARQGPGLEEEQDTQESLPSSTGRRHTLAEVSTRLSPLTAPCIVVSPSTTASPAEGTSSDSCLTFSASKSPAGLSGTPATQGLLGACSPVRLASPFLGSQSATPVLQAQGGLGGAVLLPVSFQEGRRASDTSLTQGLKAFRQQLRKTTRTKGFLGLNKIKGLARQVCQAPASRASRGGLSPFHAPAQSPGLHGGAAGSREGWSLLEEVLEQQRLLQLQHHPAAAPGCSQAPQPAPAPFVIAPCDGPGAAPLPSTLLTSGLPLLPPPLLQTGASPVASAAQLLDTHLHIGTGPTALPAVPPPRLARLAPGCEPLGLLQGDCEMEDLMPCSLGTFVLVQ
T3 sequence (Q9H0K1 whole entry): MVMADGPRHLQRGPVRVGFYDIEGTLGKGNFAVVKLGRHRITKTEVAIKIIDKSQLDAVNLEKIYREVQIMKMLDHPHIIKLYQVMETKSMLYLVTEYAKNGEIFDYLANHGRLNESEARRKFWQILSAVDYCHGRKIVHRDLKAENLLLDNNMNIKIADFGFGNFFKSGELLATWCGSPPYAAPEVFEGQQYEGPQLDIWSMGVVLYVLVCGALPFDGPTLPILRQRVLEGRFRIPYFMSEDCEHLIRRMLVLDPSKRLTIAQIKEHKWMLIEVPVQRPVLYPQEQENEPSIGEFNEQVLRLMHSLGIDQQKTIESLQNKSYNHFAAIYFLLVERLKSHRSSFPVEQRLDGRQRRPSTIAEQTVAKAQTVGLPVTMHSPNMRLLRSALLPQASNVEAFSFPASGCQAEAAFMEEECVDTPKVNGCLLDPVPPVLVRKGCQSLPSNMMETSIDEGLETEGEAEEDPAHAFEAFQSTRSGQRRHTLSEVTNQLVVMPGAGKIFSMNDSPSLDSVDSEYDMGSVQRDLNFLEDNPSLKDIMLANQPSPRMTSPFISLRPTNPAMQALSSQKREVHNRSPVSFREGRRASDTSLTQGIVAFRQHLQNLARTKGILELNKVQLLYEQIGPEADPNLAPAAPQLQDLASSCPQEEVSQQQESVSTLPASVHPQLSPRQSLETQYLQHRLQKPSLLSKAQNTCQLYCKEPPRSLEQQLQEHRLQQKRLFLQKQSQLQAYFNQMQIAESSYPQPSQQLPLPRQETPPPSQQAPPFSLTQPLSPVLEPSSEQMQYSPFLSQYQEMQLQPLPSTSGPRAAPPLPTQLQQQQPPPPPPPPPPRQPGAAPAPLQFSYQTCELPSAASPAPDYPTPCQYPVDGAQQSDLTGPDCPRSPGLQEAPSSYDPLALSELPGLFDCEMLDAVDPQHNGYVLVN

pIC50 [1] | pIC50 [2] | pIC50 [3] | pEC50 ([4]; Homo sapiens, Macrophage) | Structure (SMILES) | IL-10 FCmax median [5] | pIC50 ([1]; 33P radioactive SIK kinase assay, AMARA peptide, 15 μM ATP) | pEC50 [4]
7.00 to 8.00 | 7.00 to 8.00 | 7.00 to 8.00 | 6.00 to 7.00 | CCn1cc(-c2cnc3c(c2)ncn3-c2cc(OC)c(C(=O)NCC(F)(F)F)c(OC)c2)cn1 [Cpd 29, 4-[6-(1-ethylpyrazol-4-yl)imidazo[4,5-b]pyridin-3-yl]-2,6-dimethoxy-N-(2,2,2-trifluoroethyl)benzamide] | ++ (>1.5-4.5) |  | 
 |  |  |  | COc1cc(-n2cnc3cc(-c4cnn(C)c4)ccc32)cc(OC(F)F)c1C(=O)NC1CC1 [Cpd 53, N-cyclopropyl-2-(difluoromethoxy)-6-methoxy-4-[5-(1-methylpyrazol-4-yl)benzimidazol-1-yl]benzamide] | ++ (>1.5-4.5) |  | 
 |  |  | 6.00 to 7.00 | CCCNC(=O)c1c(OC)cc(-n2cnc3cc(-c4cnn(CC)c4)ccc32)cc1OC [compound 22, 4-[5-(1-ethylpyrazol-4-yl)benzimidazol-1-yl]-2,6-dimethoxy-N-propyl-benzamide] | ++ (>1.5-4.5) |  | 
7.00 to 8.00 | 7.00 to 8.00 | 7.00 to 8.00 | 7.00 to 10.00 | COc1cc(-c2cnc3cc(-c4cnn(C)c4)ccn23)cc(OC)c1C(=O)NC(C)C [compound 171, N-isopropyl-2,6-dimethoxy-4-[7-(1-methylpyrazol-4-yl)imidazo[1,2-a]pyridin-3-yl]benzamide] |  |  | 
8.00 to 11.00 | 7.00 to 8.00 | 8.00 to 11.00 | 7.00 to 10.00 | COc1cc(-c2cnc3cc(-c4cnn(C)c4)ccn23)cc(NCCO)c1C(=O)NCC(F)(F)F [compound 205, 2-(2-hydroxyethylamino)-6-methoxy-4-[7-(1-methylpyrazol-4-yl)imidazo[1,2-a]pyridin-3-y 1]-N-(2,2,2-trifluoroethyl)benzamide] |  |  | 
8.00 to 11.00 | 8.00 to 11.00 | 8.00 to 11.00 | 6.00 to 7.00 | COc1cc(-c2cnc3cc(-c4cnn(C)c4)ccn23)cc(OC)c1C(=O)N1CC(C)(C)C1 [compound 208, [2,6-dimethoxy-4-[7-(1-methylpyrazol-4-yl)imidazo[1,2-a]pyridin-3-yl]phenyl]-(3,3-dimethylazetidin-1-yl)methanone] |  |  | 
8.00 to 11.00 | 7.00 to 8.00 | 7.00 to 8.00 | 6.00 to 7.00 | COc1cc(-c2cnc3cc(-c4cnn(C)c4)ccn23)cc(OC)c1C(=O)N1CCC(C#N)C1 (stereo not drawn) [compound 210, 1-[2,6-dimethoxy-4-[7-(1-methylpyrazol-4-yl)imidazo[1,2-a]pyridin-3-yl]benzoyl]pyrrolidine-3-carbonitrile] |  |  | 
7.00 to 8.00 | 7.00 to 8.00 | 7.00 to 8.00 | 6.00 to 7.00 | C#CC1(O)CN(C(=O)c2c(OC)cc(-n3cnc4cc(-c5cnn(C)c5)ccc43)cc2OC)C1 [compound 221, [2,6-dimethoxy-4-[5-(1-methylpyrazol-4-yl)benzimidazol-1-yl]phenvl]-(3-ethynyl-3-hydroxy-azetidin-1-yl)methanone] |  |  | 
8.00 to 11.00 | 7.00 to 8.00 | 8.00 to 11.00 | 7.00 to 10.00 | COc1cc(-c2cnc3cc(-c4cc(C)no4)ccn23)cc(OC)c1C(=O)NCC(F)(F)F [compound 232, 2,6-dimethoxy-4-[7-(3-methylisoxazol-5-yl)imidazo[1,2-a]pyridin-3-yl]-N-(2,2,2-trifluoroethyl)benzamide] |  |  | 
8.00 to 11.00 | 8.00 to 11.00 | 8.00 to 11.00 | 7.00 to 10.00 | COc1cc(-c2cnc3cc(-c4cnn(CC(=O)OC5CC5)c4)ccn23)cc(OC)c1C(=O)NCC(F)(F)F [compound 234, cyclopropyl 2-[4-[3-[3,5-dimethoxy-4-(2,2,2-trifluoroethyl-carbamoyl)phenyl]imidazo[1,2-a]pyridin-7-yl]pyrazol-1-yl]acelate] |  |  | 
7.00 to 8.00 | 6.30 to 7.00 | 6.30 to 7.00 | 6.00 to 7.00 | COc1ncc(-c2ccn3c(-c4cc(OC)c(C(=O)NCC(F)(F)F)c(OC)c4)cnc3c2)cn1 [compound 241, 2,6-dimethoxy-4-[7-(2-methoxypyrimidin-5-yl)imidazo[1,2-a]pyridin-3-yl]-N-(2,2,2-trifluoroethyl)benzamide] |  |  | 
7.00 to 8.00 | 6.30 to 7.00 | 6.30 to 7.00 | 5.30 to 6.00 | COc1cc(-c2cnc3cc(-c4cncnc4)ccn23)cc(OC)c1C(=O)NCC(F)(F)F [compound 242, 2,6-dimethoxy-4-(7-pyrimidin-5-ylimidazo[1,2-a]pyridin-3-yl)-N-(2,2,2-trifluoroethyl)benzamide] |  |  | 
8.00 to 11.00 | 8.00 to 11.00 | 8.00 to 11.00 | 7.00 to 10.00 | COc1cc(-c2cnc3cc(-c4cnn(C(C)C(=O)OC(C)(C)C)c4)ccn23)cc(OC)c1C(=O)NCC(F)(F)F (stereo not drawn) [compound 243, tert-butyl 2-[4-[3-[3,5-dimethoxy-4-(2,2,2-trifluoroethyl-carbamoyl)phenyl]imidazol[1,2-a]pyridin-7-yl]pyrazol-1-yl]propanoate] |  |  | 
8.00 to 11.00 | 7.00 to 8.00 | 8.00 to 11.00 | 7.00 to 10.00 | CCOc1cncc(-c2ccn3c(-c4cc(OC)c(C(=O)NCC(F)(F)F)c(OC)c4)cnc3c2)c1 [compound 248, 4-[7-(5-ethoxy-3-pyridyl)imidazo[1,2-a]pyridin-3-yl]-2,6-dimethoxy-N-(2,2,2-trifluoroethyl)benzamide] |  |  | 
8.00 to 11.00 | 8.00 to 11.00 | 8.00 to 11.00 | 7.00 to 10.00 | COc1cc(-c2cnc3cc(-c4ccc(N5CCOCC5)nc4)ccn23)cc(OC)c1C(=O)NCC(F)(F)F [compound 251, 2,6-dimethoxy-4-[7-(6-morpholino-3-pyridyl)imidazo[1,2-a]pyridin-3-yl]-N-(2,2,2-trifluoroethyl)benzamide] |  |  | 

Structure (SMILES) | pIC50 [1] | pIC50 [2] | pIC50 [3] | pEC50 ([4]; Homo sapiens, Macrophage) | IL-10 FCmax median [5] | pIC50 ([1]; 33P radioactive SIK kinase assay, AMARA peptide, 15 μM ATP) | pEC50 [4]
COC(=O)C(C)n1cc(-c2ccn3c(-c4cc(OC)c(C(=O)NCC(F)(F)F)c(OC)c4)cnc3c2)cn1 (stereo not drawn) [compound 244, methyl 2-[4-[3-[3,5-diinethoxy-4-(2,2,2-trifluoroethyl-carbamoyl)phenyl]imidazo[1,2-a]pyridin-7-yl]pyrazol-1-yl]propanoate] |  | 8.00 to 11.00 | 8.00 to 11.00 |  |  | 8.00 to 11.00 | 7.00 to 10.00
